ChEMBL document CHEMBL1201862, “PubChem BioAssay data set” (2004)
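Cells were grown in 96-well plates and exposed to each compound for 48 hours at five concentrations; endpoints were interpolated linearly between bracketing concentrations, or set to the highest concentration if not reached. GI50 is the concentration that inhibits growth by half.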 Calls of active or inactive are those of the source. No stated cut-off is given here; in the data, active = GI50 up to about 1.1 µM and inactive = higher.

Key:
Assay in all cases: growth of human tumour cells (NCI), 48 h
BT-549 = tested on: BT-549
MDA-N = tested on: MDA-N
DLD-1 = tested on: DLD-1
DMS-273 = tested on: DMS-273
LXFL 529 = tested on: LXFL 529
M19-MEL = tested on: M19-MEL
SNB-78 = tested on: SNB-78
XF498 = tested on: XF498

Compound	GI50 (BT-549)	GI50 (MDA-N)	other results
O=C(CC(O)(C(F)(F)F)C(F)(F)F)C(c1ccccc1)C(O)(C(F)(F)F)C(F)(F)F (stereo not given)	24 µM (inactive)	78.2 µM (inactive)	
CC(C)/C(Cl)=N\OC(NC(=O)P(=O)(c1ccccc1)c1ccccc1)(C(F)(F)F)C(F)(F)F		19.5 µM (inactive)	
CC(=O)OC(C)(C)[C@H]1O[C@]23O[C@]1(C)C[C@@H](C)[C@@H]2[C@@]1(C)CC[C@@]24C[C@@]25CC[C@H](O[C@@H]2OC[C@@H](O)[C@H](O)[C@H]2O)C(C)(C)[C@@H]5CC[C@H]4[C@]1(C)[C@H]3O	16.3 µM (inactive)		
C=CC/N=C1/N=C(CC(=O)OCC)CS1			GI50 (DLD-1): > 100 µM (inactive); GI50 (DMS-273): > 100 µM (inactive); GI50 (LXFL 529): > 100 µM (inactive); GI50 (M19-MEL): > 100 µM (inactive); GI50 (SNB-78): > 100 µM (inactive); GI50 (XF498): > 100 µM (inactive)
CC1=C(C)CC2C(=O)N(c3cc(C(C)(C)C)ccc3C(C)(C)C)C(=O)C2C1 (stereo not given)	24.7 µM (inactive)	> 100 µM (inactive)	
O=[N+]([O-])c1ccc(/N=N/N2CCCC2)cc1	> 100 µM (inactive)	> 100 µM (inactive)	
BrC(Br)=C1C(=C(Br)Br)C(Br)C1Br (stereo not given)	0.327 µM (active)	0.368 µM (active)	GI50 (DLD-1): 0.573 µM (active); GI50 (DMS-273): 0.126 µM (active); GI50 (LXFL 529): 0.439 µM (active); GI50 (M19-MEL): 0.63 µM (active); GI50 (SNB-78): 1.32 µM (inactive)
COc1ccc(C)cc1N1C(=O)C2ON(Cc3ccc(CC(N)=O)cc3)C(c3c4ccccc4c(Cl)c4ccccc34)C2C1=O (stereo not given)	24.1 µM (inactive)	14.6 µM (inactive)	
Cc1cccc(/C=N/NC(=S)NC2CCCCC2)n1	31 µM (inactive)	28.4 µM (inactive)	
O=C(/C=C/c1ccc(O)c(O)c1)OCCOC(=O)/C=C/c1ccc(O)c(O)c1	34.4 µM (inactive)	19.8 µM (inactive)	
CC(/C=C/c1ccccc1)=N\N=C(C)\C=C\c1ccccc1			GI50 (DLD-1): > 100 µM (inactive); GI50 (DMS-273): > 100 µM (inactive); GI50 (LXFL 529): > 100 µM (inactive); GI50 (M19-MEL): > 100 µM (inactive); GI50 (SNB-78): > 100 µM (inactive); GI50 (XF498): > 100 µM (inactive)
CN(C)CCNC(=O)c1ccc2ccc3cccnc3c2n1			GI50 (DLD-1): 6.55 µM (inactive); GI50 (DMS-273): 6.89 µM (inactive); GI50 (LXFL 529): 11.8 µM (inactive); GI50 (SNB-78): 7.78 µM (inactive)
CC(C)[C@H]1NC(=O)[C@H]2N=C(S[C@H]2C)[C@@H]2CCCN2C(=O)[C@H](Cc2ccccc2)NC(=O)[C@@H]2CSC(=N2)[C@@H](Cc2ccccc2)NC(=O)[C@@H]2CSC1=N2	> 50 µM (inactive)	30.2 µM (inactive)	
N#CC1=C(N2CCCC2)NC(=O)CC1=O		> 100 µM (inactive)	
C=CCn1c(=O)ccn(/C(=C/C(=O)OCC)C(=O)OCC)c1=O	15.7 µM (inactive)	15.5 µM (inactive)	
CCOC(=O)/C1=C(\C)N(c2ccc(C)cc2)C(=O)c2ccccc2C(=O)c2c(O)ccc(O)c21	27.7 µM (inactive)		
CCOC(=O)c1c(N2CCCC2)[nH]c(=O)c(C(c2c(O)c(C(=O)OCC)c(N3CCCC3)[nH]c2=O)C(C)C)c1O	32.4 µM (inactive)	> 100 µM (inactive)	
Nc1nc(Cl)c(N)c(NCC2(CO)CCCC2)n1	50.5 µM (inactive)	> 100 µM (inactive)	
CCOc1ccc(C(c2c(O)c3ccccc3oc2=O)c2c(O)c3ccccc3oc2=O)cc1	67.8 µM (inactive)	60 µM (inactive)	
COP(=O)(CC(=O)C1OC(C)(C)OC1C(O)COCc1ccccc1)OC (stereo not given)			GI50 (DLD-1): > 100 µM (inactive); GI50 (DMS-273): > 100 µM (inactive); GI50 (LXFL 529): > 100 µM (inactive); GI50 (M19-MEL): > 100 µM (inactive); GI50 (SNB-78): > 100 µM (inactive)
Cc1ccc(NC(=O)C(=O)Cc2cc[n+]([O-])cc2)cc1			GI50 (DLD-1): > 100 µM (inactive); GI50 (DMS-273): > 100 µM (inactive); GI50 (LXFL 529): > 100 µM (inactive); GI50 (M19-MEL): > 100 µM (inactive); GI50 (SNB-78): > 100 µM (inactive); GI50 (XF498): > 100 µM (inactive)

Compound	GI50 (BT-549)	GI50 (MDA-N)	other results
CCCSc1ccc2[nH]c(N3C(=O)/C(=C/c4ccc(SC)cc4)N=C3c3ccccc3)cc2c1	> 38.7 µM (inactive)	6.56 µM (inactive)	
COC(=O)C1=C(C(=O)OC)C2(/N=C(\Nc3ccccc3)c3ccccc3)N(c3ccc(OC)cc3)CC(c3ccccc3)N2O1 (stereo not given)	> 100 µM (inactive)	> 100 µM (inactive)	
N#CCCN(CCC#N)c1ccc(C(=N/c2ccc(Cl)cc2)/N=N/c2ccccc2)cc1	17.5 µM (inactive)	> 100 µM (inactive)	
CN(C)Cc1cc(/N=N/c2ccccc2Cl)cc(CN(C)C)c1O	53.1 µM (inactive)	29.2 µM (inactive)	
COc1cc(OC)c(OC)cc1/C=C/c1cc[n+](C)c2ccccc12		24.3 µM (inactive)	
Cn1c(=O)nc2n(-c3cc(Cl)ccc3Cl)c3ccccc3nc-2c1=O			GI50 (DLD-1): 1.53 µM (inactive); GI50 (DMS-273): 3.67 µM (inactive); GI50 (LXFL 529): 13.8 µM (inactive); GI50 (M19-MEL): 1.35 µM (inactive); GI50 (SNB-78): 13.5 µM (inactive); GI50 (XF498): 7.76 µM (inactive)
O=S(=O)(c1ccccc1)n1c2ccc(Br)cc2c2nc3ccccc3nc21		> 100 µM (inactive)	
C/C=C/[C@H]1O[C@@](OC)([C@@H](C)[C@H](O)[C@H](C)[C@H]2OC(=O)/C(OC)=C/C(C)=C/[C@@H](C)[C@@H](O)[C@@H](C)[C@@H](O)[C@H](C)C/C(C)=C/C=C/[C@@H]2OC)CC(OC2CC(O)C(OC(N)=O)C(C)O2)[C@@H]1C (stereo not given in full)	< 0.01 µM (active)	< 0.01 µM (active)	
O=c1c2ccccc2n2n1CC(O)C2 (stereo not given)			GI50 (DLD-1): > 100 µM (inactive); GI50 (DMS-273): > 100 µM (inactive); GI50 (M19-MEL): > 100 µM (inactive); GI50 (SNB-78): 9.35 µM (inactive); GI50 (XF498): > 100 µM (inactive)
CC1(C)CC(=O)c2[nH]c3ccccc3c2CC(=O)NCCc2cn1cn2	> 100 µM (inactive)	> 100 µM (inactive)	
COc1ccc(C#CCC(OC2OC(CO)C(O)C(O)C2O)C(O)c2ccc(OC)c(OC)c2)cc1OC (stereo not given)			GI50 (DLD-1): > 100 µM (inactive); GI50 (DMS-273): > 100 µM (inactive); GI50 (LXFL 529): > 100 µM (inactive); GI50 (SNB-78): > 100 µM (inactive)
CCOC(=O)Nn1c(CC#N)nnc1Cc1ccccc1	> 100 µM (inactive)	> 100 µM (inactive)	
COC(=O)c1ccccc1C1CN=NC12Cc1ccc(C)cc1C2=O (stereo not given)	47.9 µM (inactive)	27.7 µM (inactive)	
COC(=O)c1ccc(/C=N/c2cc(C)nn2-c2ccccc2)cc1	34.9 µM (inactive)	13.8 µM (inactive)	
CC(=O)NNc1nc(C)c(C(/C=C/c2ccc([N+](=O)[O-])cc2)=N/NC(N)=S)s1	> 100 µM (inactive)	> 100 µM (inactive)	
CCN(CC)CC[n+]1ccc2c(C)c3[nH]c4ccccc4c3c(C)c2c1	1.3 µM (inactive)	0.675 µM (active)	GI50 (DLD-1): 1.87 µM (inactive); GI50 (DMS-273): 0.338 µM (active)
N#CC1CCCC2SC(F)(F)C(F)(F)C12 (stereo not given)	> 100 µM (inactive)	> 100 µM (inactive)	
N#Cc1nc(C#N)n(S(=O)(=O)c2ccccc2)c1NS(=O)(=O)c1ccccc1	> 100 µM (inactive)	> 100 µM (inactive)	
O=C1CC2(CCNCC2)C(=O)N1N1CCOCC1	> 100 µM (inactive)	> 100 µM (inactive)	
Cc1ccc(S(=O)OCc2c(C)c(C)c(COS(=O)c3ccc(C)cc3)c(C)c2C)cc1 (stereo not given)			GI50 (DLD-1): > 100 µM (inactive); GI50 (DMS-273): > 100 µM (inactive); GI50 (LXFL 529): > 100 µM (inactive); GI50 (M19-MEL): > 100 µM (inactive); GI50 (SNB-78): 31.6 µM (inactive); GI50 (XF498): > 100 µM (inactive)
CC(C)(C)c1ccc(O)c(CN(Cc2c(O)ccc3ccccc23)C2CCCCC2)c1	19.6 µM (inactive)	15.5 µM (inactive)	

Compound	GI50 (BT-549)	GI50 (MDA-N)	other results
CCCN(CCCC(NC(C)=O)C(=O)NCc1ccccc1)C(=O)N(C)N=O (stereo not given)			GI50 (DLD-1): > 100 µM (inactive); GI50 (DMS-273): > 100 µM (inactive); GI50 (LXFL 529): > 100 µM (inactive); GI50 (M19-MEL): > 100 µM (inactive); GI50 (SNB-78): > 100 µM (inactive); GI50 (XF498): > 100 µM (inactive)
C[C@@]12CCCc3coc(c31)C(=O)c1cc3c(cc12)C(=O)C=CC3=O [XESTOQUINONE]			GI50 (DLD-1): 2.54 µM (inactive); GI50 (LXFL 529): 15 µM (inactive); GI50 (M19-MEL): 13.8 µM (inactive); GI50 (XF498): 16.1 µM (inactive)
COc1ccc(-n2nnc(C(N)=O)c2O)cc1	> 100 µM (inactive)	> 100 µM (inactive)	
CC1(C)CC[C@]2(C(=O)O)CC[C@]3(C)[C@H](C(=O)C=C4[C@@]5(C)C=C(C#N)C(=O)C(C)(C)[C@@H]5CC[C@]43C)[C@@H]2C1 [BARDOXOLONE]	0.731 µM (active)		
CCOC(=O)C(NC(=O)OC(C)(C)C)C(=O)OCC	> 100 µM (inactive)		
Cc1ccc(C)c(NC2=NC(=O)C(CC(=O)Nc3ccc(Cl)cc3Cl)S2)c1 (stereo not given)			GI50 (DLD-1): > 100 µM (inactive); GI50 (DMS-273): 98.6 µM (inactive); GI50 (LXFL 529): 58.7 µM (inactive); GI50 (M19-MEL): 59.4 µM (inactive); GI50 (XF498): 32.7 µM (inactive)
Cc1nc2c(O)nc3ccccc3c2o1	> 100 µM (inactive)	> 100 µM (inactive)	
Cc1cc(Cl)ccc1Nc1sc(C(=O)c2cc3cc(Cl)ccc3o2)c(N)c1C#N	> 51.9 µM (inactive)	79.3 µM (inactive)	
N#CC(c1ccc(O)cc1)N1CCN(C(C#N)c2ccc(O)cc2)CC1 (stereo not given)	> 72.3 µM (inactive)		
COc1c(Br)cc2ccccc2c1-c1c(OC)c(Br)cc2ccccc12		> 100 µM (inactive)	
COc1ccc(N/N=C2\CCOc3ccc(C)cc3C2=O)cc1	24.1 µM (inactive)	3.98 µM (inactive)	
O=C1N[C@H]2c3c(Cl)sc(Cl)c3/C(=N/O)[C@H]2O1	> 100 µM (inactive)	> 100 µM (inactive)	
CC(=O)OCCn1cnc2c(NCC=C(C)C)ncnc21		> 100 µM (inactive)	
CC(=O)NC1C(OCc2ccccc2)OC(CO)C(O)C1OC(C)C(=O)NC(C(=O)N[C@@H](CCC(=O)NCCNCCNc1c2ccccc2nc2cccc([N+](=O)[O-])c12)C(N)=O)C(C)C (stereo not given in full)	> 100 µM (inactive)	20.1 µM (inactive)	
COc1ccc(C2c3cc4c(cc3OC(N3CCOCC3)C2C)OCO4)c(OC)c1OC (stereo not given)		2.45 µM (inactive)	
Cc1ccc2c(CC(=O)O)cc(=O)oc2c1			GI50 (DLD-1): > 100 µM (inactive); GI50 (DMS-273): 37.2 µM (inactive); GI50 (LXFL 529): > 100 µM (inactive); GI50 (M19-MEL): > 100 µM (inactive); GI50 (XF498): 2.86 µM (inactive)
O=NNc1cnc(O)nc1O		> 100 µM (inactive)	
Cc1nc(Nc2ccc(Cl)c(Cl)c2)sc1C(=O)/C=C/c1ccc2c(c1)OCO2	21.5 µM (inactive)		
Cc1ccc(S(=O)(=O)NN=C2C(C)(C)CC2(C)C)cc1		> 100 µM (inactive)	
CC1(C)C[C@H](O)[C@H](O)[C@]23C(=O)O[C@H](O)[C@H]2C(C=O)=CC[C@@H]13	> 100 µM (inactive)	> 100 µM (inactive)	
CN(CCN(C)C(=S)NN)C(=S)NN	> 100 µM (inactive)	> 100 µM (inactive)	
